Experimental data from US20210038732A1, “ANTICANCER MICRORNA AND LIPID FORMULATIONS THEREOF” (INTERNA TECHNOLOGIES B.V., priority 2018, published 2021).

Tests used:
4T1 = assay: Cell viability (MTS assay or cell count); format: cell-based, mouse; details: 10 nM; TNBC 4T1; normalized to mock
Description: Depending on cancer cell type 3000-6000 cells were seeded in a 96 well plate. After cells attached, they were transfected with different concentrations of miRNA-193a and viability was measured at different time points. Viability measurement was performed using CellTiter 96 AQueous One Solution Cell Proliferation Assay (Promega). 20 μL of MTS reagent was added to 100 μL of media in each well in 96-well plate and incubated for 2 hours at 37° C. Absorbance was measured at 490 nm for each sample in 96 well plate reader.
Different biological effects of miRNA-193a-3p have been tested in various cancer cell lines (see Table 13). For this, various cells were treated with miRNA-193a at different concentrations (1, 3, 10 nM). For all experiments controls (untreated, mock and scrambled) were measured. […] Data shown in Table 13 are the results for miRNA-193a at 10 nM concentration at indicated time points. All the results have been quantified and normalized to the mock control.
(§1) miRNA-193a treatment in various cancer cell lines decreased cell viability over time as measured by either an MTS assay or by cell count. It enhanced apoptosis induction over time as measured by a caspase 3/7 apoptosis assay. […] It is of note that due to intrinsic characteristics and gene mutation status of each cell line, performing one method to detect apoptosis is not always ideal for all cell lines.

A549, H460 = assay: Cell cycle arrest profile (nuclei imaging or flow cytometry); format: cell-based, human; details: 10 nM
Description: Depending on cancer cell type 3000-6000 cells were seeded in a 96 well plate. After cells attached, they were transfected with different concentrations of miRNA-193a and cell cycle profile was measured at different time points. At selected time points media was aspirated from wells and DNA staining solution (Hoescht 33342/Saponin/PFA) was added to each well and incubated for 2 hours at 37° C. Then, cell images were taken using Thermo Celllnsite in which nuclei were specified and nuclei intensity were measured. Nuclei intensity was analyzed using program R to determine the different phases of the cell cycle (G0/G1, S, G2/M) based on the DNA content.
To specifically detect the cells that are undergoing apoptosis, FITC Annexin V apoptosis detection kit (BD pharmingen) was used. […] After cells attached, they were transfected with different concentrations of miRNA-193a and apoptosis assay was measured at different time points following the manufacturer's protocol. With this assay we have detected the percentage of apoptotic cells indicating the SubG1 phase of the cell cycle.
Different biological effects of miRNA-193a-3p have been tested in various cancer cell lines (see Table 13). […] For all experiments controls (untreated, mock and scrambled) were measured. […] All the results have been quantified and normalized to the mock control. […]

Huh7, H1299, and HCT116 = assay: Cleaved-parp protein on western blot; format: cell-based; details: data not shown
Text: as §1

A2058 melanoma cells = assay: Adenosine assay; format: cell-based, human; details: miRNA-193a-3p at 10 nM, vs untreated, mock, scrambled
Description: 4000 A2058 melanoma cells were seeded per well in a 96 well plate. 4h after seeding, cells were transfected with different concentrations of miRNA-193a-3p, scrambled control, siNT5E and siPool as control. 24h post transfection the cells were treated with 500 μM AMP and adenosine measurement was performed 24h post-treatment following steps from adenosine measurement kit (BioVision).

[1] = system: MPP2, STMN1, YWHAZ, and CCNA2; assay: Expression of G2/M related target genes by RT-PCR; format: cell-based, human; details: 10 nM; Hep3B, SNU449 and H1975; 24h, 48h and 72h; vs mock
Description: To prepare cDNA, first 100 ng total RNA was mixed with Random Hexamers (Qiagen; final concentration 2 μM) in a final volume of 12.5 μl in NFW, denatured for 5 min at 70° C. and immediately cooled on ice. Next, 7.5 μl of a cDNA synthesis mix was added, consisting of 4 μl 5×RT Buffer (Promega), 0.4 μl 25 mM dNTPs (Promega), 1 μl 200 U/μL MMLV RT-enzyme (Promega), 0.5 μL 40 U/μL RNAse Inhibitor (Promega) and 1.6 μL NFW. The following cDNA synthesis protocol was used:
Similar phenotype has been observed in Panc1 (pancreatic cancer cell) as well as H1975 (lung cancer cell) (data not shown). […] MPP2 and STMN1 associate with cytoskeleton and therefore regulate cell division and proliferation at the G2/M phase, while YWHAZ and CCNA2 play roles in regulation of G2/M phase checkpoint by binding and sequestering the cyclin-dependent kinases.

[2] = system: A549, H460, HEP3B, HUH7, A2058, BT549; assay: RNA-sequencing differential expression in six cancer cell lines; format: cell-based, human; details: for Down-regulated genes: adjusted P<0.1, 10 nM, 24h
Description: Six human cancer cell lines were cultured in appropriate media (Table 3) and seeded into 6-well plates 24h before transfection with 10 nM miRNA-193a-3p or mock using Lipofectamine RNAiMAX (Thermofisher). Reagents were aspirated 16h after transfection and cells were passaged into new 6-well plates. Media was aspirated 24h after transfection and plates were stored at −80° C. Three independent replicates were performed for each cell line.
RNA was isolated using the miRNeasy Mini kit (Qiagen). The procedure included on-column DNase treatment. RNA concentration was measured on NanodropOne. 150 ng of each independent replicate was pooled and 450 ng samples (Table) were submitted to GenomeScan BV (Leiden, The Netherlands).
PolyA enrichment was performed followed by next generation RNA-Sequencing using Illumina NovaSeq 6000 at GenomeScan BV. The data processing workflow included raw data quality control, adapter trimming, and alignment of short reads. The reference GRCh37.75.dna.primary_assembly was used for alignment of the reads for each sample. Based on the mapped locations in the alignment file the frequency of how often a read was mapped on a transcript was determined (feature counting). The counts were saved to count files, which serve as input for downstream RNA-Seq differential expression analysis.
Differential expression analysis was performed on the short read data set by GenomeScan BV. The read counts were loaded into the DESeq package v1.30.0, a statistical package within the R platform v3.4.4. DESeq was specifically developed to find differentially expressed genes between two conditions (mock versus miRNA-193a-3p) for RNA-Seq data with small sample size and over-dispersion. […]

miRNA-193a: duplex of the miRNA-193a-3p of SEQ ID NO: 218 (mimic, sense) with antisense strand SEQ ID NO: 219; naked in vitro, formulated in vivo (sense UGGGACUUUGUAGGCCAGUUTT; antisense AACUGGCCUACAAAGUCCCAGU; chemistry not given here; listed as Homo sapiens)
Viability (96 h) (4T1): ↓ (Viability > 50%)
Cell cycle arrest (72 h) (A549, H460): SubG1
Cleaved-parp protein on western blot (Huh7, H1299, and HCT116): enhanced cleaved-parp protein
Adenosine generation (A2058 melanoma cells): reduces
Expression level of G2/M related target genes [1]: down-regulated
% Predicted ([2]; # cell lines =6): 83%
Down-regulated genes ([2]; # cell lines =6): 35
% Predicted ([2]; # cell lines ≥1): 58%
Down-regulated genes ([2]; # cell lines ≥1): 352
% Predicted ([2]; # cell lines ≥2): 65%
Down-regulated genes ([2]; # cell lines ≥2): 282
% Predicted ([2]; # cell lines ≥3): 67%
Down-regulated genes ([2]; # cell lines ≥3): 242
% Predicted ([2]; # cell lines ≥4): 66%
Down-regulated genes ([2]; # cell lines ≥4): 218
% Predicted ([2]; # cell lines ≥5): 63%
Down-regulated genes ([2]; # cell lines ≥5): 181
